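Values below derive from 48-hour exposures of cells grown in 96-well plates, with endpoints linearly interpolated between the two concentrations bracketing the appropriate inhibition level. At the GI50, growth is halved.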 Active and inactive are the calls of the source. No stated cut-off is given here; in the data, active = GI50 up to about 1.1 µM and inactive = higher.
Key:
Assay in all cases: growth of human tumour cells (NCI), 48 h
[1] = test system: 786-0
[2] = test system: ACHN
[3] = test system: HCC 2998
[4] = test system: KM12
[5] = test system: M14
[6] = test system: MOLT-4
[7] = test system: NCI-H23
[8] = test system: OVCAR-3
[9] = test system: OVCAR-4
[10] = test system: RPMI-8226
[11] = test system: SF-539
[12] = test system: SK-MEL-28
[13] = test system: SK-OV-3
[14] = test system: SNB-19
[15] = test system: SNB-75
[16] = test system: SR
[17] = test system: TK-10
[18] = test system: U-251
[19] = test system: MDA-MB-231

Measured: GI50

Cc1cc(C)nc(NS(=O)(=O)c2ccc(Nc3c4ccccc4nc4c(C(=O)Nc5ccc(S(=O)(=O)N=C(N)N)cc5)ccc(Cl)c34)cc2)n1
inactive: [1] 38.9 µM | [2] 43.5 µM | [3] 20 µM | [4] 42.7 µM | [5] 88.5 µM | [6] 23.5 µM | [7] 19.7 µM | [8] 17.5 µM | [9] 23.9 µM | [10] 28.2 µM | [11] 19.3 µM | [12] > 10 µM | [13] 22.9 µM | [14] 20.4 µM | [15] 35.7 µM | [16] 25.3 µM | [17] 34.6 µM | [18] 18.2 µM

O=[N+]([O-])c1ccc2c(c1)Sc1ccccc1N2CCCCCl
inactive: [1] > 100 µM | [2] > 100 µM | [3] > 100 µM | [4] > 100 µM | [19] > 100 µM | [6] 87.9 µM | [7] > 100 µM | [8] > 100 µM | [9] 3.86 µM | [10] > 100 µM | [11] > 100 µM | [12] > 100 µM | [14] > 100 µM | [15] > 100 µM | [16] > 100 µM | [17] > 100 µM | [18] > 100 µM

[O-][S+](Nc1ccccc1)c1ccccc1Oc1ccccc1 (configuration not stated)
inactive: [1] 24.7 µM | [2] 46 µM | [3] 24.3 µM | [4] 18.8 µM | [5] 24.5 µM | [19] 36.2 µM | [6] 19.1 µM | [7] 29.8 µM | [8] 92.9 µM | [10] 43.3 µM | [11] 14.6 µM | [12] 33.5 µM | [14] 38.9 µM | [15] 28.6 µM | [16] 7.41 µM | [17] > 100 µM | [18] 22 µM

NC(=O)N/N=C1/CCCC/C1=C\c1ccccc1
inactive: [1] > 100 µM | [2] > 100 µM | [3] > 100 µM | [4] > 100 µM | [5] > 100 µM | [6] 36.6 µM | [7] > 100 µM | [8] > 100 µM | [9] > 100 µM | [10] > 100 µM | [11] > 100 µM | [12] > 100 µM | [13] > 100 µM | [15] 76.6 µM | [16] > 100 µM | [17] > 100 µM | [18] > 100 µM

N#C/C(=C\c1ccccc1)C(NO)Nc1ccccc1 (configuration not stated)
inactive: [1] > 100 µM | [2] 72.9 µM | [3] > 100 µM | [4] > 100 µM | [5] > 100 µM | [6] 31.9 µM | [7] > 100 µM | [8] 48.2 µM | [9] 84.3 µM | [10] 58.1 µM | [11] 70.3 µM | [12] > 100 µM | [13] > 100 µM | [14] 60.4 µM | [15] 50.6 µM | [16] 20.1 µM | [17] > 100 µM | [18] 30.3 µM

COc1ccc(C2CCC(Cl)(OC)CC2C=O)cc1 (configuration not stated)
inactive: [1] 45 µM | [2] 95.9 µM | [3] > 100 µM | [4] > 100 µM | [5] 40.1 µM | [6] 47.5 µM | [7] 34.6 µM | [8] 94.2 µM | [9] > 100 µM | [10] 45.7 µM | [11] 56.4 µM | [12] 21 µM | [13] > 100 µM | [14] 73.6 µM | [15] 31.4 µM | [16] 41.1 µM | [17] > 100 µM | [18] 43.9 µM

C/C=C/C1(C)/C(=N\O)C(C)(CCC)C(=O)N1O (configuration not stated)
inactive: [1] > 100 µM | [2] > 100 µM | [3] > 100 µM | [4] > 100 µM | [5] > 100 µM | [6] > 100 µM | [7] > 100 µM | [8] > 100 µM | [9] > 100 µM | [10] > 100 µM | [11] > 100 µM | [12] > 100 µM | [13] > 100 µM | [14] > 100 µM | [15] > 100 µM | [16] > 100 µM | [17] > 100 µM | [18] > 100 µM

CC(C)OC(=O)C1=C2c3ncccc3C(=O)N2[C@@H](Cl)[C@H](Cl)[C@H]1Cl
inactive: [1] 55.2 µM | [2] > 100 µM | [3] > 100 µM | [4] > 100 µM | [5] > 100 µM | [19] > 100 µM | [6] 22.5 µM | [7] 46.2 µM | [8] > 100 µM | [9] > 100 µM | [10] 21.8 µM | [11] > 100 µM | [12] > 100 µM | [14] > 100 µM | [16] 26.5 µM | [17] > 100 µM | [18] 56.8 µM

CCCCCCCCCCCCCCCCOCC(CC(F)(F)P(=O)(OCC)OCC)OC(C)=O (configuration not stated)
inactive: [1] 10.8 µM | [2] 13.9 µM | [3] 8.69 µM | [4] 11.6 µM | [5] 17.9 µM | [19] 14.9 µM | [6] 28.1 µM | [7] 16.9 µM | [8] 17.5 µM | [9] 14.9 µM | [10] 25.1 µM | [12] 17.8 µM | [13] 19.6 µM | [14] 3.21 µM | [15] 17.5 µM | [17] 14 µM | [18] 2.72 µM

O=C(Nc1nccs1)c1cc(C2=CC=CC([N+](=O)[O-])C=C2)nc(S)n1 (configuration not stated)
inactive: [1] > 100 µM | [2] > 100 µM | [3] > 100 µM | [4] > 100 µM | [5] > 100 µM | [6] > 100 µM | [7] > 100 µM | [8] > 100 µM | [10] > 100 µM | [11] > 100 µM | [12] > 100 µM | [13] > 100 µM | [14] > 100 µM | [15] > 100 µM | [16] > 100 µM | [17] > 100 µM | [18] > 100 µM

CCCCOC(=O)CNC(=O)OCCCCC#CC#CCCCCOC(=O)NCC(=O)OCCCC
inactive: [1] > 100 µM | [2] > 100 µM | [3] > 100 µM | [4] > 100 µM | [5] > 100 µM | [6] > 100 µM | [7] > 100 µM | [9] > 100 µM | [10] > 100 µM | [11] > 100 µM | [13] > 100 µM | [14] > 100 µM | [15] > 100 µM | [16] > 100 µM | [17] > 100 µM | [18] > 100 µM

CCOC(=O)/C(C#N)=C/Nc1c(C)n(C)n(-c2ccccc2)c1=O
inactive: [1] > 100 µM | [2] > 100 µM | [3] > 100 µM | [4] > 100 µM | [5] > 100 µM | [19] > 100 µM | [6] > 100 µM | [7] > 100 µM | [8] > 100 µM | [9] > 100 µM | [10] > 100 µM | [11] > 100 µM | [13] > 100 µM | [16] > 100 µM | [17] > 100 µM | [18] > 100 µM

CCOP(=O)(OCC)OC1C=CC2CCC1C2 (configuration not stated)
inactive: [1] 86.3 µM | [2] > 100 µM | [3] > 100 µM | [4] > 100 µM | [5] > 100 µM | [6] > 100 µM | [7] > 100 µM | [8] > 100 µM | [9] > 100 µM | [10] 28.1 µM | [11] > 100 µM | [12] > 100 µM | [13] > 100 µM | [14] > 100 µM | [15] > 100 µM | [16] 26.6 µM | [17] > 100 µM | [18] > 100 µM

COC(=O)C(CCC1(C)OCCO1)C(C)=O (configuration not stated)
inactive: [1] > 100 µM | [2] > 100 µM | [3] > 100 µM | [4] > 100 µM | [5] > 100 µM | [6] > 100 µM | [7] > 100 µM | [8] > 100 µM | [9] > 100 µM | [11] > 100 µM | [12] > 100 µM | [13] > 100 µM | [14] > 100 µM | [15] > 100 µM | [16] 84.3 µM | [17] > 100 µM | [18] > 100 µM

CC(C)CCn1nc(N)c2nc3ccccc3nc21
inactive: [1] > 100 µM | [2] 41.3 µM | [3] > 100 µM | [4] > 100 µM | [5] > 100 µM | [6] 26.3 µM | [7] > 100 µM | [8] > 100 µM | [9] > 100 µM | [10] > 100 µM | [11] > 100 µM | [12] > 100 µM | [13] > 100 µM | [14] > 100 µM | [15] > 100 µM | [16] 15.2 µM | [17] > 100 µM | [18] > 100 µM

O=C1C=CC(=CC=C2C=CN(CCCCCCCCCCC(=O)NCCCCCCCCCCCC(=O)O)C=C2)C=C1
inactive: [1] > 100 µM | [2] > 100 µM | [3] > 100 µM | [4] > 100 µM | [5] > 100 µM | [6] > 100 µM | [7] > 100 µM | [8] > 100 µM | [9] > 100 µM | [10] > 100 µM | [11] > 100 µM | [12] > 100 µM | [13] > 100 µM | [14] > 100 µM | [15] > 100 µM | [16] > 100 µM | [17] > 100 µM | [18] > 100 µM

From ChEMBL document CHEMBL1201862, “PubChem BioAssay data set” (2004)
